# Experiment: Phase I clinical trial: treatment-emergent adverse events (patients, n (%)), dose limiting toxicity, MTD
# Type: in vivo
# Protocol: Safety, maximum tolerated dose (MTD), pharmacokinetics (PK) and preliminary antitumor activity were evaluated.
# Pharmacodynamic (PD) endpoints were evaluated in surrogate (peripheral blood cells [PBCs], skin) and tumor tissues for the phosphorylation of TORC1-dependent markers (4EBP1/S6), and TORC2-dependent markers (AKT/PRAS40).
compound,measurement,setting,value
CC(C)n1nc(-c2ccc3oc(N)nc3c2)c2c(N)ncnc21 [compound A],Oral discomfort,7 mg/week (N = 3),0 (0%)
same,Patients Reporting at Least One Related TEAE,7 mg/week (N = 3),3
same,Pruritus,7 mg/week (N = 3),0 (0%)
same,RASH,7 mg/week (N = 3),0 (0%)
same,Rash,7 mg/week (N = 3),0 (0%)
same,Vomiting,7 mg/week (N = 3),2 (67%)
same,WEAKNESS,7 mg/week (N = 3),0 (0%)
same,Alanine aminotransferase increased,"9 mg/3 W, QDx3d QW (N = 5)",0 (0%)
same,Asthenia,"9 mg/3 W, QDx3d QW (N = 5)",1 (20%)
same,Catheter site inflammation,"9 mg/3 W, QDx3d QW (N = 5)",0 (0%)
same,Catheter site pain,"9 mg/3 W, QDx3d QW (N = 5)",0 (0%)
same,Decreased appetite,"9 mg/3 W, QDx3d QW (N = 5)",0 (0%)
same,Diarrhoea,"9 mg/3 W, QDx3d QW (N = 5)",1 (20%)
same,Dry skin,"9 mg/3 W, QDx3d QW (N = 5)",1 (20%)
same,Dysgeusia,"9 mg/3 W, QDx3d QW (N = 5)",0 (0%)
same,Dyspnoea,"9 mg/3 W, QDx3d QW (N = 5)",1 (20%)
same,Fatigue,"9 mg/3 W, QDx3d QW (N = 5)",0 (0%)
same,Headache,"9 mg/3 W, QDx3d QW (N = 5)",0 (0%)
same,Hyperbilirubinaemia,"9 mg/3 W, QDx3d QW (N = 5)",0 (0%)
same,Hypercholesterolaemia,"9 mg/3 W, QDx3d QW (N = 5)",1 (20%)
same,Hyperglycaemia,"9 mg/3 W, QDx3d QW (N = 5)",1 (20%)
same,Hypertransaminasaemia,"9 mg/3 W, QDx3d QW (N = 5)",1 (20%)
same,Hypertriglyceridaemia,"9 mg/3 W, QDx3d QW (N = 5)",1 (20%)
same,Hypomagnesaemia,"9 mg/3 W, QDx3d QW (N = 5)",1 (20%)
same,Hypotension,"9 mg/3 W, QDx3d QW (N = 5)",1 (20%)
same,Low fever,"9 mg/3 W, QDx3d QW (N = 5)",0 (0%)
same,Lymphopenia,"9 mg/3 W, QDx3d QW (N = 5)",1 (20%)
same,Mucosal inflammation,"9 mg/3 W, QDx3d QW (N = 5)",2 (40%)
same,Nausea,"9 mg/3 W, QDx3d QW (N = 5)",2 (40%)
same,Palmar-plantar erythrodysaesthesia syndrome,"9 mg/3 W, QDx3d QW (N = 5)",1 (20%)
same,Patients Reporting at Least One Related TEAE,"9 mg/3 W, QDx3d QW (N = 5)",4 (80%)
same,Platelet count decreased,"9 mg/3 W, QDx3d QW (N = 5)",0 (0%)
same,Pruritus,"9 mg/3 W, QDx3d QW (N = 5)",2 (40%)
same,Pyrexia,"9 mg/3 W, QDx3d QW (N = 5)",0 (0%)
same,Rash,"9 mg/3 W, QDx3d QW (N = 5)",3 (60%)
same,Rash macular,"9 mg/3 W, QDx3d QW (N = 5)",0 (0%)
same,Urinary tract infection,"9 mg/3 W, QDx3d QW (N = 5)",1 (20%)
same,Vomiting,"9 mg/3 W, QDx3d QW (N = 5)",2 (40%)
same,Asthenia,"9 mg/3 W, QDx3d QW (N = 5), 2nd Asthenia line",0 (0%)
same,Diarrhoea,"10 mg/5 W, QDx5d QW (N = 3)",0 (0%)
same,Patients Reporting at Least One Related TEAE,"10 mg/5 W, QDx5d QW (N = 3)",1 (33%)
same,Rash,"10 mg/5 W, QDx5d QW (N = 3)",0 (0%)
same,Urine tract infection,"10 mg/5 W, QDx5d QW (N = 3)",1 (33%)
same,Vomiting,"10 mg/5 W, QDx5d QW (N = 3)",1 (33%)
same,Nausea,"10 mg/5 W, QDx5d QW (N = 3), 1st Nausea line",1 (33%)
same,Nausea,"10 mg/5 W, QDx5d QW (N = 3), 2nd Nausea line",0 (0%)
same,ASTHENIA,10 mg/week (N = 3),0 (0%)
same,ATHENIA,10 mg/week (N = 3),0 (0%)
same,Alanine aminotransferase increased,10 mg/week (N = 3),0 (0%)
same,Aspartate aminotransferase increased,10 mg/week (N = 3),1 (33%)
same,Asthenia,10 mg/week (N = 3),0 (0%)
same,Blood creatinine increased,10 mg/week (N = 3),0 (0%)
same,Blood triglycerides increased,10 mg/week (N = 3),0 (0%)
same,DIARRHEA,10 mg/week (N = 3),0 (0%)
same,Decreased appetite,10 mg/week (N = 3),0 (0%)
same,Diarrhoea,10 mg/week (N = 3),0 (0%)
same,Dysgeusia,10 mg/week (N = 3),0 (0%)
same,Dyspepsia,10 mg/week (N = 3),0 (0%)
same,HYPERGLYCEMIA,10 mg/week (N = 3),0 (0%)
same,Hyperglycaemia,10 mg/week (N = 3),1 (33%)
same,Lymphopenia,10 mg/week (N = 3),0 (0%)
same,Malaise,10 mg/week (N = 3),0 (0%)
same,Mucosal inflammation,10 mg/week (N = 3),0(0%)
same,Muscle spasms,10 mg/week (N = 3),0 (0%)
same,Nausea,10 mg/week (N = 3),2 (67%)
same,Oral discomfort,10 mg/week (N = 3),1 (33%)
same,Patients Reporting at Least One Related TEAE,10 mg/week (N = 3),2 (67%)
same,Pruritus,10 mg/week (N = 3),0 (0%)
same,RASH,10 mg/week (N = 3),0 (0%)
same,Rash,10 mg/week (N = 3),0 (0%)
same,Vomiting,10 mg/week (N = 3),1 (33%)
same,WEAKNESS,10 mg/week (N = 3),0 (0%)
same,Alanine aminotransferase increased,"12 mg/3 W, QDx3d QW (N = 3)",0 (0%)
same,Asthenia,"12 mg/3 W, QDx3d QW (N = 3)",1 (33%)
same,Catheter site inflammation,"12 mg/3 W, QDx3d QW (N = 3)",1 (33%)
same,Catheter site pain,"12 mg/3 W, QDx3d QW (N = 3)",1 (33%)
same,Decreased appetite,"12 mg/3 W, QDx3d QW (N = 3)",1 (33%)
same,Diarrhoea,"12 mg/3 W, QDx3d QW (N = 3)",0 (0%)
same,Dry skin,"12 mg/3 W, QDx3d QW (N = 3)",0 (0%)
same,Dysgeusia,"12 mg/3 W, QDx3d QW (N = 3)",1 (33%)
same,Dyspnoea,"12 mg/3 W, QDx3d QW (N = 3)",0 (0%)
same,Fatigue,"12 mg/3 W, QDx3d QW (N = 3)",0 (0%)
same,Headache,"12 mg/3 W, QDx3d QW (N = 3)",0 (0%)
same,Hyperbilirubinaemia,"12 mg/3 W, QDx3d QW (N = 3)",0 (0%)
same,Hypercholesterolaemia,"12 mg/3 W, QDx3d QW (N = 3)",0 (0%)
same,Hyperglycaemia,"12 mg/3 W, QDx3d QW (N = 3)",2 (67%)
same,Hypertransaminasaemia,"12 mg/3 W, QDx3d QW (N = 3)",0 (0%)
same,Hypertriglyceridaemia,"12 mg/3 W, QDx3d QW (N = 3)",0 (0%)
same,Hypomagnesaemia,"12 mg/3 W, QDx3d QW (N = 3)",0 (0%)
same,Hypotension,"12 mg/3 W, QDx3d QW (N = 3)",0 (0%)
same,Low fever,"12 mg/3 W, QDx3d QW (N = 3)",0 (0%)
same,Lymphopenia,"12 mg/3 W, QDx3d QW (N = 3)",0 (0%)
same,Mucosal inflammation,"12 mg/3 W, QDx3d QW (N = 3)",1 (33%)
same,Nausea,"12 mg/3 W, QDx3d QW (N = 3)",2 (67%)
same,Palmar-plantar erythrodysaesthesia syndrome,"12 mg/3 W, QDx3d QW (N = 3)",0 (0%)
same,Patients Reporting at Least One Related TEAE,"12 mg/3 W, QDx3d QW (N = 3)",2 (67%)
same,Platelet count decreased,"12 mg/3 W, QDx3d QW (N = 3)",0 (0%)
same,Pruritus,"12 mg/3 W, QDx3d QW (N = 3)",1 (33%)
same,Pyrexia,"12 mg/3 W, QDx3d QW (N = 3)",0 (0%)
same,Rash,"12 mg/3 W, QDx3d QW (N = 3)",0 (0%)
same,Rash macular,"12 mg/3 W, QDx3d QW (N = 3)",1 (33%)
same,Urinary tract infection,"12 mg/3 W, QDx3d QW (N = 3)",0 (0%)
same,Vomiting,"12 mg/3 W, QDx3d QW (N = 3)",0 (0%)
same,Asthenia,"12 mg/3 W, QDx3d QW (N = 3), 2nd Asthenia line",0 (0%)
same,ASTHENIA,15 mg/week (N = 3),0 (0%)
same,ATHENIA,15 mg/week (N = 3),0 (0%)
same,Alanine aminotransferase increased,15 mg/week (N = 3),0 (0%)
same,Aspartate aminotransferase increased,15 mg/week (N = 3),0 (0%)

# — patent US9174994B2, “Enhanced treatment regimens using mTor inhibitors” (INTELLIKINE LLC, priority 2011, dated 2015)
